{"source": "paper PMC9486541", "about": "“Design, synthesis and cytotoxic evaluation of novel betulonic acid-diazine derivatives as potential antitumor agents” (Frontiers in Chemistry, 2022)", "key": {"MCF-7": {"system": "MCF-7", "assay": "MTT assay, MCF-7 cells", "type": "cell-based, human", "settings": "Homo sapiens, MCF7, 72 h incubation, read-out: Half maximal inhibitory concentration (IC50) values, MCF-7", "from_the_text": "(§1) The human hepatocellular carcinoma cell line (HepG2), human hepatocellular carcinoma cell line (Bel-7402), human cervical cancer cell line (Hela), human breast adenocarcinoma cell line (MCF-7) and Madin-Darby canine kidney cell line (MDCK) were obtained from the Chinese Academy of Medical Sciences and Peking Union Medical College. Cultures were maintained as monolayer in RPMI-1640/DMEM supplemented with 10% (v/v) fetal bovine serum (FBS) and 1% (v/v) penicillin/streptomycin (Thermo Technologies, New York, NY, United States) under a humidified atmosphere containing 5% CO2 at 37°C. The BoA derivatives and positive control drugs (BoA and DDP) under study were dissolved in DMSO (Sigma, St. Louis, MO, United States) and added at required concentrations to the cell culture. Cells incubated without the preparations served as the control.\n(§2) The antitumor activity was assessed by MTT assay, as previously reported ([Fang et al., 2018]). Each tested compound and positive control drugs were dissolved in DMSO and diluted with the medium to the test concentrations, and the final concentration of DMSO in the culture medium was controlled at less than 0.5% (v/v). Briefly, cells were cultured at 37°C and dispersed in replicates in 96-well plates with HepG2, Bel-7402, HeLa, MCF-7 and MDCK for 24 h. Fresh medium along with compounds (BoAA-BoAE, BoA2A-BoA2G, BoA3A-BoA3G, BoA4A-BoA4G) at different concentrations was then added to individual wells and incubated for 72 h, with BoA and DDP as the positive control. Experiments on FXR expression were separated into three groups: Control (PBS), BoA2C (8 μM), and BoA2C (8 μM) + DY268 (10 μM) ([Giordano et al., 2016]), with three repeating wells in each. In separate wells, BoA2C and DY268 were introduced and cultured for 72 h. After 72 h, the cell was incubated with MTT solution (0.5 mg/ml) for an additional 4 h at 37°C. The produced formazan crystals were solubilized with DMSO, and the optical density of solution was measured at 570 nm using a plate reader (BIORAD 550 spectrophotometer, Bio-rad Life Science Development Ltd., Beijing, China). Wells without drugs were used to be blanks. The IC50 values were defined as the concentration of compounds that produced a 50% proliferation inhibition of surviving cells and calculated using the Graph Pad Prism 5. The inhibitory rate was calculated in the following Equation 1, where OD is the optical density: % inhibition=[1−(OD Sample group−OD Blank group)/(OD Control group−OD Blank group)]×100% (1)"}, "Hela": {"system": "Hela", "assay": "MTT assay, Hela cells", "type": "cell-based, human", "settings": "Homo sapiens, HeLa, 72 h incubation, read-out: Half maximal inhibitory concentration (IC50) values, Hela", "from_the_text": "as §1, §2"}, "MCF-7 cells [1]": {"system": "MCF-7 cells", "assay": "DAPI staining of nuclear changes, MCF-7", "type": "cell-based, human", "settings": "MCF-7 cells, 2, 4, 8 μM, 72 h", "procedure": "Morphological observation of nuclear changes was performed by DAPI staining in this assay. MCF-7 cells in the logarithmic growth phase were seeded in 12-well plates at a density of 5 × 10^3 cells/well and were allowed to grow for 24 h. Then the cells were treated with different concentration ranges of BoA2C (0, 2, 4 8 μM) for 72 h. After the treatment period, cells were washed with PBS and fixed with 4% paraformaldehyde for 10 min. Then the liquid was discarded, and the cells were stained with DAPI (1 mg/ml, Molecular Probes/Invitrogen Life Technologies, Carlsbad, CA, United States) for 1 min in dark. After staining, cells were visualized under a fluorescence microscope (Olympus IX71, Tokyo, Japan)."}, "MCF-7 cells [2]": {"system": "MCF-7 cells", "assay": "Wound healing assay", "type": "cell-based, human", "settings": "8 μM, 0, 24, 48 h, compared to control group", "procedure": "MCF-7 cells were seeded in six-well plates at a density of […] and incubated at 37°C to achieve 100 percent confluence. After starving the cells for 24 h, a wound (cell-free) was drawn across the center of the well using the tip of a 1 ml plastic pipette. Wells were cleaned twice with PBS before being treated for 48 h with BoA2C (8 μM). At 0 h, 24 h, and 48 h, cells were viewed and photographed in randomly selected fields using an inverted light microscope (Nikon)."}, "MDCK cells": {"system": "MDCK cells", "assay": "DAPI staining of nuclear changes, MDCK", "type": "cell-based, canine", "settings": "MDCK cells, 2, 4, 8 μM"}, "Bel-7402": {"system": "Bel-7402", "assay": "MTT assay, Bel-7402 cells", "type": "cell-based, human", "settings": "Homo sapiens, Bel-7402, 72 h incubation, read-out: Half maximal inhibitory concentration (IC50) values, Bel-7402", "from_the_text": "as §1, §2"}, "HepG2": {"system": "HepG2", "assay": "MTT assay, HepG2 cells", "type": "cell-based, human", "settings": "Homo sapiens, HepG2, 72 h incubation, read-out: Half maximal inhibitory concentration (IC50) values, HepG2", "from_the_text": "as §1, §2"}, "MDCK": {"system": "MDCK", "assay": "MTT assay, MDCK normal cell line", "type": "cell-based, canine", "from_the_text": "as §1, §2"}}, "data": [{"smiles": "C=C(C)[C@@H]1CC[C@]2(C(=O)OCCOC(=O)c3cnc(C)cn3)CC[C@]3(C)[C@H](CC[C@@H]4[C@@]5(C)CCC(=O)C(C)(C)[C@@H]5CC[C@]43C)[C@@H]12", "note": "[BoA2C, (5-Methylpyrazin-2-acyloxy)-ethyl-3-oxolup-20(29)-en-28-oate]", "values": [{"measurement": "IC50", "setting": "MCF-7", "value": "3.39 ± 0.07", "unit": "µM"}, {"measurement": "IC50", "setting": "Hela", "value": "15.6 ± 2.63", "unit": "µM"}, {"measurement": "nuclear morphological changes (DAPI staining)", "setting": "MCF-7 cells [1]", "value": "nuclear morphological changes typical of apoptosis in a dose-dependent manner"}, {"measurement": "migration of cells in the scratch wound", "setting": "MCF-7 cells [2]", "value": "obviously reduced the migration of MCF-7 cells"}, {"measurement": "melting point", "value": "139 to 141", "unit": "°C"}, {"measurement": "nuclear damage (DAPI staining)", "setting": "MDCK cells", "value": "did not show a significant nuclear damage"}, {"measurement": "IC50", "setting": "Bel-7402", "value": "3.65 ± 0.43", "unit": "µM"}, {"measurement": "IC50", "setting": "HepG2", "value": "7.46 ± 1.43", "unit": "µM"}, {"measurement": "cytotoxicity on MDCK cell line compared with DDP (cisplatin)", "setting": "MDCK; 72 h", "value": "lower cytotoxicity on MDCK cell line than cisplatin"}, {"measurement": "IC50", "setting": "MDCK; Canis lupus familiaris, MDCK, 72 h incubation, normal cell line, read-out: Half maximal inhibitory concentration (IC50) values, MDCK", "value": "> 30", "unit": "µM"}]}]}
